15 compounds from US10266497B2 (ABIDE THERAPEUTICS, INC., priority 2017, dated 2019) can be followed below.

Experiment [1] addresses T1, MAGL (Mus musculus, UniProt O35678).
T1 sequence (O35678 1-303): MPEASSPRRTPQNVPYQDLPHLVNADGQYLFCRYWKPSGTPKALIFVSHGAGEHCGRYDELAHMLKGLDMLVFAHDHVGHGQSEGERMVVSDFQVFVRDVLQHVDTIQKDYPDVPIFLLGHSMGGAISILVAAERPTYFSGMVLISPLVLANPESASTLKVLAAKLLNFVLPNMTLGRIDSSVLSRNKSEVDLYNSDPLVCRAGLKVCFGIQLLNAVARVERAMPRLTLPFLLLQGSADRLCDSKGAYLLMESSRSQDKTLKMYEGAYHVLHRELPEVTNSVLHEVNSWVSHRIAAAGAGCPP
In words: In vitro competitive activity-based protein profiling, MAGL, mouse. The note with it: read-out: MAGL % inh. 1 μM (mouse).

The target in experiment [2] is T2, FAAH (Homo sapiens, UniProt O00519).
T2 sequence (O00519 1-579): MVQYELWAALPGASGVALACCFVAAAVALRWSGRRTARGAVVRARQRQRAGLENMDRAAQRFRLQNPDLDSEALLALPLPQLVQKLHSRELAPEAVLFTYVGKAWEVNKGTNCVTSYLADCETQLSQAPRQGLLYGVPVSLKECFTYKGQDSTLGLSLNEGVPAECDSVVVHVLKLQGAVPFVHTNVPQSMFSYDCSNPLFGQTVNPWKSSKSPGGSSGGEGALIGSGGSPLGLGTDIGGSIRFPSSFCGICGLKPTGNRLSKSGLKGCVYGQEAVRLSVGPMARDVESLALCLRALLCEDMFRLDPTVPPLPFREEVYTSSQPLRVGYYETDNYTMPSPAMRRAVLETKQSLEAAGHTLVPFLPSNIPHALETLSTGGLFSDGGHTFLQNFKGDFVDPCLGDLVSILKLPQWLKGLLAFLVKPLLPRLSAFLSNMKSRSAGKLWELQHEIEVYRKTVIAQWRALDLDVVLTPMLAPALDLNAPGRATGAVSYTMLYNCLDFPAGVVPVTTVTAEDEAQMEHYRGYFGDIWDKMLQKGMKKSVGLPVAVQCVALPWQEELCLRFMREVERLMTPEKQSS
In words: In vitro competitive activity-based protein profiling, FAAH, human. The note with it: for inhibition at 1 µM: read-out: FAAH % inh. 1 μM (human).
Description: Biological Evaluation In Vitro Competitive Activity-Based Protein Profiling.
Proteomes (mouse brain membrane fraction for mouse assays; human prefrontal cortex membrane fractions for human assays) (50 mL, 1.0 mg/mL total protein concentration) were preincubated with varying concentrations of inhibitors at 37° C. After 30 min, FP-Rh (1.0 mL, 50 mM in DMSO) was added and the mixture was incubated for another 30 min at 37° C. Reactions were quenched with SDS loading buffer (15 μL—4λ) and run on SDS-PAGE.

Experiment [3] deals with T3, MAGL (Homo sapiens, UniProt Q99685).
T3 sequence (Q99685 1-303): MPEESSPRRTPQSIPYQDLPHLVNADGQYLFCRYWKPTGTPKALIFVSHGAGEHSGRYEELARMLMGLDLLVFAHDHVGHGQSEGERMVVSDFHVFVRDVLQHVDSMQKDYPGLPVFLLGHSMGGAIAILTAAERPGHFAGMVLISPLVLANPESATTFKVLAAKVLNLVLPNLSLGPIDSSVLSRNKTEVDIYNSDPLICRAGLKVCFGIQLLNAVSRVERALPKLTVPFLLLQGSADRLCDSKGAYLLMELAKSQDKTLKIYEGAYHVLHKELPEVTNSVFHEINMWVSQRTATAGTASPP
In words: In vitro competitive activity-based protein profiling, MAGL, human. The note with it: for inhibition at 1 µM: read-out: MAGL % inh. 1 μM (human).

Experiment [4] deals with T4, FAAH (Mus musculus, UniProt O08914).
T4 sequence (O08914 1-579): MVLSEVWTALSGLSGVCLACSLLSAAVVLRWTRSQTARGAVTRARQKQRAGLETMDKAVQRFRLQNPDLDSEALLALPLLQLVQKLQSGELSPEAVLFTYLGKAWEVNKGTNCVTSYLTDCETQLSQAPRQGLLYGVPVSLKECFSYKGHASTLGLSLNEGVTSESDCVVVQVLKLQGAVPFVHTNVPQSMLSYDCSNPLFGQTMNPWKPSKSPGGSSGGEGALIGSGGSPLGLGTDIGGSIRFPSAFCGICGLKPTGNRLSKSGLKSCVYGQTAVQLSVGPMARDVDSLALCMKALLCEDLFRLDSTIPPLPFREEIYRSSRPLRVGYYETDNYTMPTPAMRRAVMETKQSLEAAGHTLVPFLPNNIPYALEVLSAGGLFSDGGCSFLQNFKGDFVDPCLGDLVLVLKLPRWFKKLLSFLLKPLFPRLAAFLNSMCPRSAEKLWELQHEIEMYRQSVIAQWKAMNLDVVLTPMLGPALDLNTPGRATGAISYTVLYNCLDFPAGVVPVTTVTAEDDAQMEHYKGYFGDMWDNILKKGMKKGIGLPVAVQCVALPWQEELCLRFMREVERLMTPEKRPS
In words: In vitro competitive activity-based protein profiling, FAAH, mouse. The note with it: read-out: FAAH % inh. 1 μM (mouse).

Molecules are shown by their SMILES.

Consider `O=C(O)c1ccn(C(=O)N2CCC3(CCN(Cc4c(Cl)cccc4C(F)(F)F)C3)CC2)n1` [Example 74, 1-(2-(2-chloro-6-(trifluoromethyl)benzyl)-2,8-diazaspiro[4.5]decane-8-carbonyl)-1H-pyrazole-3-carboxylic acid], for which the inhibition at 1 µM in experiment [1] was greater than 75%; in experiment [2], 0 to 25%; in experiment [3], greater than 75%; in experiment [4], 0 to 25%.

Take `O=C(O)c1nn(C(=O)N2CCC3(CCCN3Cc3cc4ccc(C(F)(F)F)cc4s3)CC2)cc1C(F)(F)F` [Example 149, 4-(trifluoromethyl)-1-(1-((6-(trifluoromethyl)benzo[b]thiophen-2-yl)methyl)-1,8-diazaspiro[4.5]decane-8-carbonyl)-1H-pyrazole-3-carboxylic acid]: the inhibition at 1 µM in experiment [1] was greater than 75%; in experiment [2] it was 25 to 50%; in experiment [3], greater than 75%; in experiment [4], greater than 75%. For the same compound, the half-maximal inhibitory concentration (IC50) lay in the range of 1000 to 10000 nM in experiment [2] and 100 to 1000 nM in experiment [3].

With `O=C(O)c1nn(C(=O)N2CCN(Cc3ccc(-c4nnn[nH]4)cc3C(F)(F)F)CC2)cc1Cl` [Example 142, 1-(4-(4-(1H-tetrazol-5-yl)-2-(trifluoromethyl)benzyl)piperazine-1-carbonyl)-4-chloro-1H-pyrazole-3-carboxylic acid], the inhibition at 1 µM in experiment [1], in experiment [2] and in experiment [4] was 0 to 25% each time. Further, the inhibition at 10 µM in experiment [3] (read-out: MAGL % inh. (human) at 10 uM) was greater than 75%.

For `Cc1cc(-c2ccccc2)ccc1CN1CCN(C(=O)n2ccc(C(=O)O)n2)C(C)C1` (centres unmarked) [Example 89, 1-(2-methyl-4-((3-methyl-[1,1′-biphenyl]-4-yl)methyl)piperazine-1-carbonyl)-1H-pyrazole-3-carboxylic acid], the inhibition at 1 µM in experiment [1], in experiment [2], in experiment [3] and in experiment [4] was greater than 75% in each case. Besides, the IC50 in experiment [2] was in the range of 100 to 1000 nM.

For `CN(Cc1ccccc1Cl)[C@H]1C[C@@H]2CN(C(=O)n3cc(Cl)c(C(N)=O)n3)C[C@@H]2C1` [Example 128], the inhibition at 1 µM in experiment [1], in experiment [2], in experiment [3] and in experiment [4] was greater than 75% each time.

`O=C(O)c1ccn(C(=O)N2CC3CN(Cc4ccc(Cl)c(N5CC6COCC6C5)c4)CC3C2)n1` (centres unmarked) [Example 166, 1-(5-(4-chloro-3-(tetrahydro-1H-furo[3,4-c]pyrrol-5(3H)-yl)benzyl)octahydropyrrolo[3,4-c]pyrrole-2-carbonyl)-1H-pyrazole-3-carboxylic acid]: the inhibition at 1 µM was greater than 75% in experiment [1], 0 to 25% in experiment [2], 50 to 75% in experiment [3] and 0 to 25% in experiment [4].

Take `O=C(O)c1nn(C(=O)N2CC3CN(Cc4ccc(-c5cnc6ccccn56)cc4C(F)(F)F)CC3C2)cc1Cl` (centres unmarked) [Example 20, 4-Chloro-1-(5-(4-(imidazo[1,2-a]pyridin-3-yl)-2-(trifluoromethyl)benzyl)octahydropyrrolo[3,4-c]pyrrole-2-carbonyl)-1H-pyrazole-3-carboxylic Acid]: the inhibition at 1 µM in experiment [1], in experiment [2], in experiment [3] and in experiment [4] was greater than 75% each time. In addition, the figures for the IC50 in experiment [2] and in experiment [3] were 1000 to 10000 nM and 100 to 1000 nM, respectively.

Turning to `O=C(O)c1ccn(C(=O)N2CCN(Cc3cc(Cl)cc(Oc4ccc(Cl)cc4)c3)CC2)n1` [Example 19, 1-(4-(3-Chloro-5-(4-chlorophenoxy)benzyl)piperazine-1-carbonyl)-1H-pyrazole-3-carboxylic Acid], the inhibition at 1 µM in experiment [1], in experiment [2], in experiment [3] and in experiment [4] was greater than 75% throughout. In experiment [2], the IC50 was 100 to 1000 nM.

Take `NC(=O)c1ccn(C(=O)N2CCC3(CCCN3Cc3ccc(C(F)(F)F)cc3N3CCCC3)CC2)n1` [Example 174, 1-(1-(2-(pyrrolidin-1-yl)-4-(trifluoromethyl)benzyl)-1,8-diazaspiro[4.5]decane-8-carbonyl)-1H-pyrazole-3-carboxamide]: the inhibition at 1 µM was greater than 75% in experiment [1], 0 to 25% in experiment [2], greater than 75% in experiment [3] and 25 to 50% in experiment [4].

Turning to `O=C(O)c1ccn(C(=O)N2CCC3(CCN(Cc4ccc(N5CCCC5)cc4C(F)(F)F)C3)CC2)n1` [Example 191, 1-(2-(4-(pyrrolidin-1-yl)-2-(trifluoromethyl)benzyl)-2,8-diazaspiro[4.5]decane-8-carbonyl)-1H-pyrazole-3-carboxylic acid], the inhibition at 1 µM is greater than 75% in experiment [1], 0 to 25% in experiment [2], greater than 75% in experiment [3] and 0 to 25% in experiment [4].

Consider `Cc1cn(C(=O)N2CCC3(CC2)CN(Cc2cc(Cl)ccc2C(F)(F)F)C3)nc1C(=O)O` [Example 131, 1-(2-(5-chloro-2-(trifluoromethyl)benzyl)-2,7-diazaspiro[3.5]non-ane-7-carbonyl)-4-methyl-1H-pyrazole-3-carboxylic acid], for which the inhibition at 1 µM in experiment [1] was greater than 75%; in experiment [2], 0 to 25%; in experiment [3] it was greater than 75%; in experiment [4] it was 0 to 25%. Moreover, the IC50 fell in the range of 1000 to 10000 nM in experiment [2] and 100 to 1000 nM in experiment [3].

As for `Cc1cc(CO[C@H]2C[C@@H]3CN(C(=O)n4ccc(C(=O)O)n4)C[C@@H]3C2)ccc1C(F)(F)F` [Example 172, 1-(trans-5-((3-methyl-4-(trifluoromethyl)benzyl)oxy)octa-hydrocyclopenta[c]pyrrole-2-carbonyl)-1H-pyrazole-3-carboxylic acid], the inhibition at 1 µM in experiment [1] is greater than 75%; in experiment [2], greater than 75%; in experiment [3] it was greater than 75%; in experiment [4] it was 50 to 75%.

On to `C[C@@H]1CC[C@H](C)N1c1cc(C(F)(F)F)ccc1CN(C)C1(C)CCN(C(=O)n2ccc(C(=O)O)n2)CC1` [Example 160, 1-(4-((2-((2R,5S)-2,5-dimethylpyrrolidin-1-yl)-4-(trifluoromethyl)benzyl)(methyl)amino)-4-methylpiperidine-1-carbonyl)-1H-pyrazole-3-carboxylic acid], for which the inhibition at 1 µM in experiment [2] and in experiment [4] was 0 to 25% throughout.

Regarding `C[C@@H]1CC[C@H](C)N1c1cc(C(F)(F)F)ccc1CN1CCCC12CCN(C(=O)n1ccc(C(=O)O)n1)CC2` [Example 80, 1-(1-(2-((2R,5S)-2,5-dimethylpyrrolidin-1-yl)-4-(trifluoromethyl)benzyl)-1,8-diazaspiro[4.5]decane-8-carbonyl)-1H-pyrazole-3-carboxylic acid], the inhibition at 1 µM in experiment [2] and in experiment [4] was 0 to 25% throughout.

Consider `O=C(O)c1ccn(C(=O)N2C[C@H]3C[C@H](OCc4ccccc4Cl)C[C@H]3C2)n1` [Example 15, 1-(trans-5-((2-Chlorobenzyl)oxy)octahydrocyclopenta[c]pyrrole-2-carbonyl)-1H-pyrazole-3-carboxylic Acid], for which the inhibition at 1 µM in experiment [2] was greater than 75%; in experiment [4], 25 to 50%.
